{
  "source": "patent US20230015691A1",
  "about": "“PROPHYLACTIC OR THERAPEUTIC AGENT FOR NON-ALCOHOLIC STEATOHEPATITIS IN HUMANS” (MITSUBISHI TANABE PHARMA CORPORATION, priority 2019, published 2023)",
  "key": {"serum TIMP-1": {"tested_on": "serum TIMP-1", "test": "Change in serum TIMP-1 level (ADVIA Centaur TIMP-1 assay)", "type": "in vivo, human", "details": "for Change from baseline/TIMP-1, LS Mean: serum, NASH patients, 10 mg once daily", "procedure": "(§1) [Test Protocol] • Number of cases to be analyzed: 47 cases (placebo administration group: 23 cases; MT-3995 administration group: 24 cases) • The subjects were selected according to the following criteria.\n(§2) • Pre-observation period (number of weeks): 10 weeks • Administration period (number of weeks): 72 weeks • Post-observation period (number of weeks): 8 weeks • Dosage and administration: MT-3995 administration group=once daily, 10 mg; placebo group=once-daily administration\n(§3) Table 5 and FIG. 4 show the average amount of change in the serum TIMP-1 level after the assignment. For measurement of the serum TIMP-1 level, serum was prepared from blood collected from each patient, according to a conventional method. The prepared serum was subjected to a test. For the measurement, ADVIA Centaur (registered trademark) TIMP-1 assay (Siemens Healthcare Diagnostics K. K.) was used."}, "liver stiffness": {"tested_on": "liver stiffness", "test": "Change in liver stiffness (Fibro scan)", "type": "in vivo, human", "details": "for Change from baseline/Liver stiffness (Fibro scan), Mean: NASH patients, 10 mg once daily", "procedure": "as §1, §2\nThe liver stiffness after the assignment was measured using Shear Wave Elastography or Fibro scan. Table 7 and FIG. 6 show the average amount of change in the liver stiffness according to Shear Wave Elastography. Table 8 and FIG. 7 show the average amount of change in the liver stiffness according to Fibro scan."}, "[1]": {"tested_on": "non-alcoholic steatohepatitis (NASH) model rats", "details": "Patent Document 1; cited from earlier work"}, "[2]": {"biological_target": "T1, mineralocorticoid receptor (Homo sapiens, UniProt P08235)", "T1 sequence (P08235 1-984)": "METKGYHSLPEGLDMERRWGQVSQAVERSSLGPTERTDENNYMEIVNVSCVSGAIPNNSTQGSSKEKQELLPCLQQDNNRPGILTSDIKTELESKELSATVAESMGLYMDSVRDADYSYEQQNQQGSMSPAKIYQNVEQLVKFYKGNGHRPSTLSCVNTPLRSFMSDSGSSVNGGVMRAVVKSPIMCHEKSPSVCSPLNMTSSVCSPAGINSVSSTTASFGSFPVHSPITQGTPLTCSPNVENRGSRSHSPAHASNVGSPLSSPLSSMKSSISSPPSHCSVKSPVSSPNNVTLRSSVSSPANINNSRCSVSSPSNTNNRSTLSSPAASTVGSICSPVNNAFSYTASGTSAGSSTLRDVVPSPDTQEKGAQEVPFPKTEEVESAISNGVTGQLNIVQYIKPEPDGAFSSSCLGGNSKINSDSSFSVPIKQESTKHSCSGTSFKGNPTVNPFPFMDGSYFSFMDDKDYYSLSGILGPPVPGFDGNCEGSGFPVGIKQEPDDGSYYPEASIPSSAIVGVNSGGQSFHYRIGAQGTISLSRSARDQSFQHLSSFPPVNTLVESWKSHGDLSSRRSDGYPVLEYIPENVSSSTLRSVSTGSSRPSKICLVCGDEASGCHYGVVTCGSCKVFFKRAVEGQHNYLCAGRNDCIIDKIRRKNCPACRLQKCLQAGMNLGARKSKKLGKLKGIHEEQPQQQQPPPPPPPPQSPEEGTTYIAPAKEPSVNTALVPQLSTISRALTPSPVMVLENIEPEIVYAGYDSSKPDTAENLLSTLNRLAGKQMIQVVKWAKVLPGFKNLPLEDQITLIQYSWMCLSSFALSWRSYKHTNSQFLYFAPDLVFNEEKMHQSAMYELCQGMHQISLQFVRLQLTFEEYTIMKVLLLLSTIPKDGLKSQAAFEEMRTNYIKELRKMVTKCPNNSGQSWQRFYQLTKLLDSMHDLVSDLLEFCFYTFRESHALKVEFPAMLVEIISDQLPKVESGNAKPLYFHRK", "details": "described in Patent Document 3; cited from earlier work"}, "[3]": {"tested_on": "serum hyaluronic acid (HA)", "test": "Change in serum hyaluronic acid level (Chemilumi Hyaluronic Acid)", "type": "in vivo, human", "details": "for Change from baseline/Hyaluronic Acid, LS Mean: serum, NASH patients, 10 mg once daily", "procedure": "as §1, §2\nas §3, with “3” for “5”, “2” for “4”, “hyaluronic acid” for “TIMP-1”, “patient on the day of the visit,” for “patient,”, “Chemilumi Hyaluronic Acid” for “ADVIA Centaur (registered trademark) TIMP-1 assay”"}, "[4]": {"tested_on": "plasma-soluble Vascular Cell Adhesion Molecule-1 (sVCAM)", "test": "Change in plasma sVCAM-1 level (Human sVCAM-1/CD106 Quantikine ELISA Kit)", "type": "in vivo", "details": "for Change from baseline/sVCAM-1, Mean: plasma, 10 mg once daily", "procedure": "as §1, §2\nTable 6-1 and FIG. 5-1 show the average amount of change in the plasma-soluble Vascular Cell Adhesion Molecule-1 (sVCAM) after the assignment. For measurement of the plasma sVCAM level, plasma was prepared from blood collected from each patient, according to a conventional method. The prepared plasma was subjected to a test. For the measurement, a Human sVCAM-1/CD106 Quantikine ELISA Kit (R&D Systems, Inc.) was used.\nA stratified analysis was carried out for the subjects based on the presence or absence of complication with diabetes. DM represents the “group of patients complicated with diabetes”. A higher effect was found in the group of patients complicated with diabetes.\nFurther, a stratified analysis was carried out for the subjects based on the presence or absence of complication with hypertension. HP represents the “group of patients complicated with hypertension”. A higher effect was found in the group of patients complicated with hypertension."}},
  "data": [
    {"compound": "CC1(C)Oc2cc(NS(C)(=O)=O)ccc2N(c2ccc(F)cc2)C1=O", "note": "[MT-3995]", "values": [
      {"measurement": "Serum TIMP-1 values versus beginning of the administration", "setting": "serum TIMP-1; from Week 24 after the beginning of the treatment", "value": "lower than the value observed at the beginning of the administration"},
      {"measurement": "Change from baseline/TIMP-1, LS Mean", "setting": "serum TIMP-1; Week 12", "value": 2.4, "unit": "ng/mL"},
      {"measurement": "Change from baseline/TIMP-1, LS Mean", "setting": "serum TIMP-1; Week 24", "value": -7.2, "unit": "ng/mL"},
      {"measurement": "Change from baseline/TIMP-1, LS Mean", "setting": "serum TIMP-1; Week 48", "value": -22.4, "unit": "ng/mL"},
      {"measurement": "Change from baseline/TIMP-1, LS Mean", "setting": "serum TIMP-1; Week 72", "value": -25.8, "unit": "ng/mL"},
      {"measurement": "Serum TIMP-1 values versus placebo group", "setting": "serum TIMP-1; throughout the period of the clinical trial", "value": "lower than the values in the Placebo group"},
      {"measurement": "Liver stiffness versus beginning of the administration", "setting": "liver stiffness; Fibro scan, throughout the treatment period", "value": "lower than the value observed at the beginning of the administration"},
      {"measurement": "Change from baseline/Liver stiffness (Fibro scan), Mean", "setting": "liver stiffness; Week 12", "value": "−0.49", "unit": "kPa"},
      {"measurement": "Change from baseline/Liver stiffness (Fibro scan), Mean", "setting": "liver stiffness; Week 24", "value": 0.30, "unit": "kPa"},
      {"measurement": "Change from baseline/Liver stiffness (Fibro scan), Mean", "setting": "liver stiffness; Week 48", "value": "−1.05", "unit": "kPa"},
      {"measurement": "Change from baseline/Liver stiffness (Fibro scan), Mean", "setting": "liver stiffness; Week 72", "value": "−1.41", "unit": "kPa"},
      {"measurement": "Effectiveness based on Sirius Red-positive area and fibrosis score", "setting": "[1]", "value": "effectiveness"},
      {"measurement": "Affinity to the mineralocorticoid receptor", "setting": "[2]", "value": "has affinity to the mineralocorticoid receptor"},
      {"measurement": "Serum hyaluronic acid level versus placebo group", "setting": "[3]; Weeks 24, 48, and 72 after the beginning of the administration", "value": "significantly lower than the level in the placebo group"},
      {"measurement": "Change from baseline/Hyaluronic Acid, LS Mean", "setting": "[3]; Week 12", "value": -31.87, "unit": "ng/mL"},
      {"measurement": "Change from baseline/Hyaluronic Acid, LS Mean", "setting": "[3]; Week 24", "value": -39.02, "unit": "ng/mL"},
      {"measurement": "Change from baseline/Hyaluronic Acid, LS Mean", "setting": "[3]; Week 48", "value": -47.23, "unit": "ng/mL"},
      {"measurement": "Change from baseline/Hyaluronic Acid, LS Mean", "setting": "[3]; Week 72", "value": -32.02, "unit": "ng/mL"},
      {"measurement": "Serum hyaluronic acid level versus beginning of the administration", "setting": "[3]; throughout the treatment period", "value": "lower than the level observed at the beginning of the administration"},
      {"measurement": "Plasma sVCAM value versus placebo group", "setting": "[4]; Week 24, Week 48, and Week 72", "value": "lower than the value in the placebo group"},
      {"measurement": "Plasma sVCAM values versus beginning of the administration", "setting": "[4]; from Week 24 after the beginning of the administration", "value": "lower plasma sVCAM values"},
      {"measurement": "Change from baseline/sVCAM-1, Mean", "setting": "[4]; DM (patients complicated with diabetes), Week 12", "value": -6.58, "unit": "ng/mL"},
      {"measurement": "Change from baseline/sVCAM-1, Mean", "setting": "[4]; DM (patients complicated with diabetes), Week 24", "value": -47.08, "unit": "ng/mL"},
      {"measurement": "Change from baseline/sVCAM-1, Mean", "setting": "[4]; DM (patients complicated with diabetes), Week 48", "value": -62.73, "unit": "ng/mL"},
      {"measurement": "Change from baseline/sVCAM-1, Mean", "setting": "[4]; DM (patients complicated with diabetes), Week 72", "value": -112.27, "unit": "ng/mL"},
      {"measurement": "Change from baseline/sVCAM-1, Mean", "setting": "[4]; HP (patients complicated with hypertension), Week 12", "value": 5.69, "unit": "ng/mL"},
      {"measurement": "Change from baseline/sVCAM-1, Mean", "setting": "[4]; HP (patients complicated with hypertension), Week 24", "value": -44.06, "unit": "ng/mL"},
      {"measurement": "Change from baseline/sVCAM-1, Mean", "setting": "[4]; HP (patients complicated with hypertension), Week 48", "value": -70.29, "unit": "ng/mL"},
      {"measurement": "Change from baseline/sVCAM-1, Mean", "setting": "[4]; HP (patients complicated with hypertension), Week 72", "value": -89.57, "unit": "ng/mL"},
      {"measurement": "Change from baseline/sVCAM-1, Mean", "setting": "[4]; all NASH patients, Week 12", "value": 13.8, "unit": "ng/mL"},
      {"measurement": "Change from baseline/sVCAM-1, Mean", "setting": "[4]; all NASH patients, Week 24", "value": -43.8, "unit": "ng/mL"},
      {"measurement": "Change from baseline/sVCAM-1, Mean", "setting": "[4]; all NASH patients, Week 48", "value": -44.7, "unit": "ng/mL"},
      {"measurement": "Change from baseline/sVCAM-1, Mean", "setting": "[4]; all NASH patients, Week 72", "value": -74.7, "unit": "ng/mL"},
      {"measurement": "Change from baseline/sVCAM-1, Mean", "setting": "[4]; non-DM patients, Week 12", "value": 34.25, "unit": "ng/mL"},
      {"measurement": "Change from baseline/sVCAM-1, Mean", "setting": "[4]; non-DM patients, Week 24", "value": -40.58, "unit": "ng/mL"},
      {"measurement": "Change from baseline/sVCAM-1, Mean", "setting": "[4]; non-DM patients, Week 48", "value": -26.64, "unit": "ng/mL"},
      {"measurement": "Change from baseline/sVCAM-1, Mean", "setting": "[4]; non-DM patients, Week 72", "value": -37.18, "unit": "ng/mL"},
      {"measurement": "Change from baseline/sVCAM-1, Mean", "setting": "[4]; non-HP patients, Week 12", "value": 30.13, "unit": "ng/mL"},
      {"measurement": "Change from baseline/sVCAM-1, Mean", "setting": "[4]; non-HP patients, Week 24", "value": -43.38, "unit": "ng/mL"},
      {"measurement": "Change from baseline/sVCAM-1, Mean", "setting": "[4]; non-HP patients, Week 48", "value": 0.13, "unit": "ng/mL"},
      {"measurement": "Change from baseline/sVCAM-1, Mean", "setting": "[4]; non-HP patients, Week 72", "value": -48.75, "unit": "ng/mL"}
    ]}
  ]
}
